The results in this text go back to patent US11753403B2, “EIF4E inhibitors and uses thereof” (PIC Therapeutics, Inc., priority 2020, dated 2023).

The structures appear in SMILES notation. Some results are limits rather than exact numbers.

As a reminder, the IC50 is the concentration at which inhibition is half-maximal. Low values mean greater potency, high ones weaker potency.

Human eIF4E (aa 28-217) / biotin labeled 4G2 peptide, sequence (P06730 28-217): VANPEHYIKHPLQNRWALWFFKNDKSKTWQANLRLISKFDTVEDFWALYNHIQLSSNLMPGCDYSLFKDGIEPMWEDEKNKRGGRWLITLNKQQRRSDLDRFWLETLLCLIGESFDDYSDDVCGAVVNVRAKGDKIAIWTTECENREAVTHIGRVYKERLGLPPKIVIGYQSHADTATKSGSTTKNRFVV

This assay addresses Human eIF4E (aa 28-217) / biotin labeled 4G2 peptide (Homo sapiens (Human), UniProt P06730). Put plainly: Human eIF4E/4G2 binding assay (TR-FRET). As to conditions: Human eIF4E/4G2 TR-FRET binding assay; head says IC50, legend says EC50. In a few lines:
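Refolded His-tagged human eIF4E (aa 28-217), 82.5 nM working stock, preincubated 4 h at RT with compounds (10-point 2-fold series) in NaPi pH 6.5 buffer with DTT and gamma globulin. Biotin-4G2 peptide then added for 20 min, followed by Eu-streptavidin/APC-anti-His for 20 min; TR-FRET 665/615 nm ratio normalized, IC50 fitted.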
(In general: Time-resolved FRET reads energy transfer from a long-lived donor to a nearby acceptor.)
Turning to `COc1cccc(-c2nc(NCC(Cc3cccc(F)c3)C(=O)O)sc2C(C)C)c1` (stereo not shown) [I-32], the IC50 lay in the range of 1000 to 10000 nM.

As for `CC(C)Cc1sc(NCc2cccc(O)n2)nc1-c1ccc(Cl)c(Cl)c1` [I-201, 6-((4-(3,4-dichlorophenyl)-5-isobutylthiazol-2-ylamino)methyl)pyridin-2-ol], the IC50 is above 10000 nM.

For the molecule `CC(C)Cc1sc(N(CCC(=O)O)Cc2ccccc2)nc1-c1cccc(F)c1` [I-82], the IC50 lay in the range of 1000 to 10000 nM.

In turn, `CNC(=O)CCN(Cc1ccccc1)c1nc(-c2ccc(Cl)c(Cl)c2)c(CC(C)C)s1` [I-200, 3-(benzyl(4-(3,4-dichlorophenyl)-5-isobutylthiazol-2-yl)amino)-N-methylpropanamide] had an IC50 above 10000 nM.

Regarding `CC(C)Cc1sc(NCc2cccnc2O)nc1-c1ccc(Cl)c(Cl)c1` [I-202], the IC50 is above 10000 nM.

With `CSc1cccc(CC(CNc2nc(-c3ccc(Cl)c(Cl)c3)c(CC(C)C)s2)C(=O)O)c1` (stereo not shown) [I-171], the IC50 was at most 1000 nM.

Regarding `CC(C)Cc1sc(-c2ccc(Br)c(C(=O)O)c2)nc1-c1ccc(Cl)c(Cl)c1` [I-224, 2-bromo-5-(4-(3,4-dichlorophenyl)-5-isobutylthiazol-2-yl)benzoic acid], the IC50 is 1000 to 10000 nM.

As to `Cn1nnnc1-c1sc(Nc2ccsc2C(=O)O)nc1-c1ccc(Cl)c(Cl)c1` [I-269, 3-(4-(3,4-dichlorophenyl)-5-(1-methyl-1H-tetrazol-5-yl)thiazol-2-ylamino)thiophene-2-carboxylic acid], the IC50 lay within 1000 to 10000 nM.

Take `CC(C)Cc1sc(N(CCC(=O)O)Cc2ccccc2)nc1-c1ccncc1` [I-84]: the IC50 was above 10000 nM.

In turn, `CC(C)Cc1sc(N(CCC(=O)O)Cc2cccc3[nH]ccc23)nc1-c1ccc(Cl)c(Cl)c1` [I-53, 3-(((1H-indol-4-yl)methyl)(4-(3,4-dichlorophenyl)-5-isobutylthiazol-2-yl)amino)propanoic acid] displayed a half-inhibitory concentration (IC50) of 1000 to 10000 nM.

Take `COCc1sc(N(CCC(=O)O)Cc2ccccc2)nc1-c1ccc(Cl)c(Cl)c1` [I-120, 3-(benzyl(4-(3,4-dichlorophenyl)-5-(methoxymethyl)thiazol-2-yl)amino)propanoic acid]: the IC50 fell in the range of 1000 to 10000 nM.

Consider `CC(C)Cc1sc(Nc2ccnc(C(=O)O)c2)nc1-c1ccc(Cl)c(Cl)c1` [I-220], for which the half-inhibitory concentration (IC50) was 1000 to 10000 nM.

`CC(C)Cc1sc(-c2ccc(C(=O)O)s2)nc1-c1ccc(Cl)c(Cl)c1` [I-229] came in with an IC50 of at most 1000 nM.

Molecule `CC(C)Cc1sc(NCC(Cc2ccc(S(C)(=O)=O)cc2)C(=O)O)nc1-c1ccc(Cl)c(Cl)c1` (stereo not shown) [I-175] registered an IC50 of 1000 to 10000 nM.

Molecule `CC(C)c1sc(Nc2ncccc2C(=O)O)nc1-c1ccc(Cl)c(C(F)(F)F)c1` [I-261] yielded an IC50 of at most 1000 nM.

The molecule `Cc1ccc(CC(CNc2nc(-c3ccc(Cl)c(Cl)c3)c(CC(C)C)s2)C(=O)O)c(C)n1` (stereo not shown) [I-157] came in with an IC50 of 1000 to 10000 nM.

Consider `CC(C)Cc1sc(NCC(Cc2cccc3c2OCO3)C(=O)O)nc1-c1ccc(Cl)c(Cl)c1` (stereo not shown) [I-19], for which the half-inhibitory concentration (IC50) is at most 1000 nM.

In turn, `CC(C)c1sc(NCC(Cc2c[nH]c3ccccc23)C(=O)O)nc1-c1ccc(Cl)cc1` (stereo not shown) [I-45] showed a 50% inhibitory concentration (IC50) of 1000 to 10000 nM.

Consider `CSCc1sc(N(CCC(=O)O)Cc2ccccc2)nc1-c1ccc(Cl)c(Cl)c1` [I-121], for which the IC50 is 1000 to 10000 nM.

As for `CC(C)Cc1sc(NCC(Cc2c[nH]c3ccccc23)C(=O)O)nc1-c1ccc(Cl)c(Cl)c1` (stereo not shown) [I-26], the IC50 was in the range of 1000 to 10000 nM.

In turn, `COCCOc1ccc(-c2nc(Nc3ncc(-c4cccs4)cc3C(=O)O)sc2CC(C)C)cc1Cl` [I-327] gave an IC50 of at most 1000 nM.

For the molecule `CC(C)c1sc(N(CCC(=O)O)Cc2ccccc2)nc1-c1ccc(Cl)c(Cl)c1` [I-74], the IC50 was at most 1000 nM.

In turn, `CC(C)Cc1sc(N(CCC(=O)NS(=O)(=O)CCN)Cc2ccccc2)nc1-c1ccc(Cl)c(Cl)c1` [I-198] displayed an IC50 above 10000 nM.

Consider `CC(C)c1sc(Nc2ncc(-c3ccccn3)cc2C(=O)O)nc1-c1ccc(Cl)c(Cl)c1` [I-282, 6′-(4-(3,4-dichlorophenyl)-5-isopropylthiazol-2-ylamino)-2,3′-bipyridine-5′-carboxylic acid], for which the IC50 was at most 1000 nM.

With `CC(C)Cc1sc(N(CCC(=O)O)Cc2cccnc2)nc1-c1ccc(Cl)c(Cl)c1` [I-62], the IC50 fell in the range of 1000 to 10000 nM.

Molecule `COc1cccc(-c2nc(NCC(Cc3ccccc3OC)C(=O)O)sc2C(C)C)c1` (stereo not shown) [I-30] had an IC50 of 1000 to 10000 nM.

`CC(C)Cc1sc(N(CCC(=O)O)Cc2ccccc2)nc1-c1ccc2[nH]ccc2c1` [I-85, 3-((4-(1H-indol-5-yl)-5-isobutylthiazol-2-yl)(benzyl)amino)propanoic acid] came in with an IC50 of 1000 to 10000 nM.

`CCOc1ccc(-c2nc(Nc3ncc(-c4cccs4)cc3C(=O)O)sc2CC(C)C)cc1Cl` [I-330] yielded an IC50 of at most 1000 nM.

`COc1cccc(-c2nc(NCC(Cc3cccc4[nH]ccc34)C(=O)O)sc2C(C)C)c1` (stereo not shown) [I-35]: the IC50 was 1000 to 10000 nM.

`COc1ccc(-c2nc(Nc3ncc(-c4cccs4)cc3C(=O)O)sc2C(C)C)cc1Cl` [I-324] registered an IC50 of at most 1000 nM.

As for `CC(C)c1sc(NCC(Cc2cccc3[nH]ccc23)C(=O)O)nc1-c1ccc(Cl)cc1` (stereo not shown) [I-44], the IC50 is 1000 to 10000 nM.

Regarding `C=C(C)c1sc(NCC(Cc2ccccc2)C(=O)O)nc1-c1ccc(Cl)c(Cl)c1` (stereo not shown) [I-185, 2-benzyl-3-(4-(3,4-dichlorophenyl)-5-(prop-1-en-2-yl)thiazol-2-ylamino)propanoic acid], the IC50 fell in the range of 1000 to 10000 nM.

As to `CC(C)c1sc(NCC(Cc2ccc3[nH]ccc3c2)C(=O)O)nc1-c1ccc(Cl)c(Cl)c1` (stereo not shown) [I-10], the IC50 lay within 1000 to 10000 nM.

In turn, `CC(C)Cc1sc(-c2ccc(-c3ccccc3)c(C(=O)O)c2)nc1-c1ccc(Cl)c(Cl)c1` [I-225] yielded an IC50 of at most 1000 nM.

In turn, `CC(C)Cc1sc(NCC(Cc2ccncn2)C(=O)O)nc1-c1ccc(Cl)c(Cl)c1` (stereo not shown) [I-161] displayed a half-maximal inhibitory concentration (IC50) of 1000 to 10000 nM.

As to `CC(C)Cc1sc(N(CCC(=O)O)Cc2cccc3c2OCO3)nc1-c1ccc(Cl)c(Cl)c1` [I-48], the IC50 is at most 1000 nM.

Molecule `Cc1ncccc1CC(CNc1nc(-c2ccc(Cl)c(Cl)c2)c(CC(C)C)s1)C(=O)O` (stereo not shown) [I-156] yielded a 50% inhibitory concentration (IC50) of 1000 to 10000 nM.

In the case of `CC(C)Cc1sc(Nc2cncc(C(=O)O)c2)nc1-c1ccc(Cl)c(Cl)c1` [I-221, 5-(4-(3,4-dichlorophenyl)-5-isobutylthiazol-2-ylamino)nicotinic acid], the IC50 is 1000 to 10000 nM.

Regarding `CC(C)Cc1sc(N(CCCCCCN)CCC(=O)O)nc1-c1ccc(Cl)c(Cl)c1` [I-148], the half-inhibitory concentration (IC50) is above 10000 nM.

Take `CC(C)Cc1sc(N(CCCCN(C)C)CCC(=O)O)nc1-c1ccc(Cl)c(Cl)c1` [I-147, 3-((4-(3,4-dichlorophenyl)-5-isobutylthiazol-2-yl)(4-(dimethylamino)butyl)amino) propanoic acid]: the IC50 lay in the range of 1000 to 10000 nM.

Molecule `COc1ccc(-c2nc(N(CCC(=O)O)Cc3ccccc3)sc2C(C)C)cc1` [I-76] gave an IC50 above 10000 nM.

As to `O=C(O)C(CNc1nc(-c2ccc(Cl)c(Cl)c2)c(CC(F)(F)F)s1)Cc1ccccc1` (stereo not shown) [I-184, 2-benzyl-3-(4-(3,4-dichlorophenyl)-5-(2,2,2-trifluoroethyl)thiazol-2-ylamino)propanoic acid], the IC50 lay in the range of 1000 to 10000 nM.

Take `CC(C)Cc1sc(-c2cccc(C(=O)O)n2)nc1-c1ccc(Cl)c(Cl)c1` [I-228, 6-(4-(3,4-dichlorophenyl)-5-isobutylthiazol-2-yl)picolinic acid]: the IC50 fell in the range of 1000 to 10000 nM.

`CC(C)Cc1sc(-c2cc(C(=O)O)c(F)cn2)nc1-c1ccc(Cl)c(Cl)c1` [I-240] showed a half-inhibitory concentration (IC50) of 1000 to 10000 nM.

In turn, `Cc1cc(Nc2nc(-c3ccc(Cl)c(Cl)c3)c(CC(C)C)s2)cc(C(=O)O)c1` [I-214] showed an IC50 of 1000 to 10000 nM.

The molecule `CC(C)Cc1sc(NCC(Cc2ccc(N(C)C)nc2)C(=O)O)nc1-c1ccc(Cl)c(Cl)c1` (stereo not shown) [I-154] gave an IC50 of 1000 to 10000 nM.

`CC(C)Cc1sc(N(CCC(=O)O)Cc2ccc(Cl)cc2)nc1-c1ccc(Cl)c(Cl)c1` [I-109] registered an IC50 of 1000 to 10000 nM.

`CC(C)Cc1sc(NCC(Cc2ccncc2)C(=O)O)nc1-c1ccc(Cl)c(Cl)c1` (stereo not shown) [I-152] had an IC50 of 1000 to 10000 nM.

Molecule `C=Cc1sc(N(CCC(=O)O)Cc2ccccc2)nc1-c1ccc(Cl)c(Cl)c1` [I-129, 3-(benzyl(4-(3,4-dichlorophenyl)-5-vinylthiazol-2-yl)amino)propanoic acid] came in with an IC50 of 1000 to 10000 nM.

In the case of `CC(C)Cc1sc(NCC(NC(=O)c2ccccc2)C(=O)O)nc1-c1ccc(Cl)c(Cl)c1` (stereo not shown) [I-136, 2-benzamido-3-(4-(3,4-dichlorophenyl)-5-isobutylthiazol-2-ylamino)propanoic acid], the IC50 is 1000 to 10000 nM.

Molecule `CC(C)c1sc(Nc2ncc(-c3cccs3)cc2C(=O)O)nc1-c1ccc(Cl)c(Cl)c1` [I-260] displayed a 50% inhibitory concentration (IC50) of at most 1000 nM.

As for `COc1cccc(-c2nc(NCC(Cc3ccccc3)C(=O)O)sc2C(C)C)c1` (stereo not shown) [I-28], the IC50 is above 10000 nM.

For `CC(C)Cc1sc(N(CCO)CCC(=O)O)nc1-c1ccc(Cl)c(Cl)c1` [I-66], the IC50 is 1000 to 10000 nM.

`COc1cccc(-c2nc(NCC(CCc3ccccc3)C(=O)O)sc2C(C)C)c1` (stereo not shown) [I-33] registered an IC50 of 1000 to 10000 nM.

`CC(C)Cc1sc(N(CCCCCC(N)=O)CCC(=O)O)nc1-c1ccc(Cl)c(Cl)c1` [I-149] had an IC50 above 10000 nM.

`CC(C)Cc1sc(N(CCC(=O)O)Cc2ccccc2)nc1-c1ccc(-c2ccsc2)cc1` [I-126, 3-(benzyl(5-isobutyl-4-(4-(thiophen-3-yl)phenyl)thiazol-2-yl)amino)propanoic acid]: the IC50 was at most 1000 nM.

`CC(C)Cc1sc(N(CCC(=O)O)Cc2ccc3[nH]ccc3c2)nc1-c1ccc(Cl)c(Cl)c1` [I-55] showed an IC50 of at most 1000 nM.

For the molecule `COC(=O)c1ccc(Nc2nc(-c3ccc(Cl)c(Cl)c3)c(CC(C)C)s2)n1C` [I-287], the IC50 is above 10000 nM.

For the molecule `CC(C)c1sc(N(CCC(=O)O)Cc2ccccc2)nc1-c1ccc(F)c(F)c1` [I-77], the IC50 was in the range of 1000 to 10000 nM.

In turn, `CC(C)Cc1sc(N(CCC(=O)O)Cc2ccc(O)cc2)nc1-c1ccc(Cl)c(Cl)c1` [I-73] returned an IC50 of 1000 to 10000 nM.

Consider `O=C(O)CCN(Cc1ccccc1)c1nc(-c2ccc(Cl)c(Cl)c2)c(C2CC2)s1` [I-56], for which the IC50 was 1000 to 10000 nM.
